In ChEMBL document CHEMBL4376834, “Discovery of 4H-Chromen-4-one Derivatives as a New Class of Selective Rho Kinase (ROCK) Inhibitors, which Showed Potent Activity in ex Vivo Diabetic Retinopathy Models” (J Med Chem, 2019):

Columns and labels:
[1] = biological target: Serine/threonine-protein kinase WNK2 (Homo sapiens, UniProt Q9Y3S1); assay: Inhibition of recombinant human WNK2 (166 to 489 residues) using myelin basic protein as substrate incubated for 40 mins in presence of [gamma33P]ATP by radiometric scintillation counting analysis
[2] = biological target: Ephrin type-A receptor 7 (Homo sapiens, UniProt Q15375); assay: Inhibition of recombinant human EphA7 (613 to 909 residues) using KTFCGTPEYLAPE as substrate measured after 40 mins in presence of [gamma33ATP] by radiometric scintillation counting analysis
[3] = biological target: Serine/threonine-protein kinase 38-like (Homo sapiens, UniProt Q9Y2H1); assay: Inhibition of recombinant human NDR2 (83 to end residues) using RSRSRSRSRSRSRSR as substrate measured after 40 mins in presence of [gamma33P]ATP by radiometric scintillation counting analysis
[4] = biological target: Dual specificity protein kinase CLK1 (Homo sapiens, UniProt P49759); assay: Inhibition of recombinant human CLK1 (130 to end residues) using ERMRPRKRQGSVR as substrate incubated 40 mins in presence of [gamma-33ATP] by radiometric scintillation counting analysis
[5] = biological target: Tyrosine-protein kinase ABL1 (Homo sapiens, UniProt P00519, H396P); assay: Inhibition of human recombinant ABL1 H396P mutant (27 to end residues) using EAIYAAPFAKKK as substrate incubated for 40 mins in presence of [gamma-33P]ATP by radiometry scintillation counting analysis assay
[6] = biological target: Ribosomal protein S6 kinase alpha-3 (Homo sapiens, UniProt P51812); assay: Inhibition of recombinant human Rsk2 (2 to end residues) using KKKNRTLSVA as substrate incubated for 40 mins in presence of [gamma33P]ATP by radiometric scintillation counting analysis
[7] = biological target: Protein kinase C iota type (Homo sapiens, UniProt P41743); assay: Inhibition of recombinant full-length human PKCiota using ERMRPRKRQGSVRR as substrate incubated for 40 mins in presence of [gamma33P]ATP by radiometric scintillation counting analysis
[8] = biological target: Eukaryotic translation initiation factor 2-alpha kinase 3 (Homo sapiens, UniProt Q9NZJ5); assay: Inhibition of human PEK (536 to end residues) using RSRSRSRSRSRSRSR as substrate measured after 40 mins in presence of [gamma33P]ATP by radiometric scintillation counting analysis
[9] = biological target: Proto-oncogene tyrosine-protein kinase receptor Ret (Homo sapiens, UniProt P07949, V804M); assay: Inhibition of recombinant human Ret V804M mutant (658 to end residues) using KKKVSRSGLYRSP as substrate incubated for 40 mins in presence of [gamma33P]ATP by radiometric scintillation counting analysis
[10] = biological target: Serine/threonine-protein kinase SIK1 (Homo sapiens, UniProt P57059); assay: Inhibition of recombinant human SIK (1 to 281 residues) using AMARAASAAALARas substrate incubated for 40 mins in presence of [gamma33P]ATP by radiometric scintillation counting analysis
[11] = biological target: Tyrosine-protein kinase JAK1 (Homo sapiens, UniProt P23458); assay: Inhibition of human recombinant JAK1 (866 to end residues) using GEEPLYWSFPAKK as substrate after 40 mins by [gamma-33ATP] by radiometric scintillation counting analysis
[12] = biological target: Casein kinase I isoform gamma-1 (Homo sapiens, UniProt Q9HCP0); assay: Inhibition of recombinant human CK1gamma1(25 to 355 residues) using KRRRALS(p)VAS as substrate incubated for 40 mins in presence of [gamma-33ATP] by radiometric scintillation counting analysis
[13] = biological target: Ephrin type-A receptor 2 (Homo sapiens, UniProt P29317); assay: Inhibition of recombinant human EphA2 (596 to 900 residues) using poly(Glu, Tyr) 4:1 as substrate after 40 mins in presence of [gamma-33ATP] by radiometric scintillation counting analysis
[14] = biological target: Serine/threonine-protein kinase 35 (Homo sapiens, UniProt Q8TDR2); assay: Inhibition of recombinant full length human CLIK1 at 10 uM using RSRSRSRSRSRS as substrate measured after 40 mins in presence of [gamma33P]ATP by radiometric scintillation counting analysis
[15] = biological target: Mitogen-activated protein kinase 1 (Homo sapiens, UniProt P28482); assay: Inhibition of recombinant full length human MAPK1 using myelin basic protein as substrate incubated for 40 mins in presence of [gamma-33ATP by radiometric scintillation counting analysis
[16] = biological target: Ribosomal protein S6 kinase beta-1 (Homo sapiens, UniProt P23443, T412E); assay: Inhibition of recombinant human p70S6K T412E mutant (1 to 421 residues) using KKRNRTLTV as substrate measured after 40 mins in presence of [gamma33P]ATP by radiometric scintillation counting analysis
[17] = biological target: Serine/threonine-protein kinase PAK 1 (Homo sapiens, UniProt Q13153); assay: Inhibition of recombinant human PAK1 (150 to end residues) using RRRLSFAEPG as substrate measured after 40 mins in presence of [gamma33P]ATP by radiometric scintillation counting analysis
[18] = biological target: MAPK/MAK/MRK overlapping kinase (Homo sapiens, UniProt Q9UQ07); assay: Inhibition of recombinant human MOK (1 to 343 residues) using RSRSRSRSRSRSR as substrate incubated for 40 mins in presence of [gamma-33ATP by radiometric scintillation counting analysis
[19] = biological target: Serine/threonine-protein kinase Nek6 (Homo sapiens, UniProt Q9HC98); assay: Inhibition of recombinant human NEK6 (2 to end residues) using FLAKSFGSPNRAYKK as substrate measured after 40 mins in presence of [gamma33P]ATP by radiometric scintillation counting analysis
[20] = biological target: Serine/threonine-protein kinase PAK 5 (Homo sapiens, UniProt Q9P286); assay: Inhibition of recombinant human PAK5 (425 to end residues) using RRRLSFAEPG as substrate measured after 40 mins in presence of [gamma33P]ATP by radiometric scintillation counting analysis
[21] = biological target: Tyrosine-protein kinase Fgr (Homo sapiens, UniProt P09769); assay: Inhibition of recombinant human FGR (2 to end residues) using poly(Glu, Tyr) 4:1 as substrate after 40 mins in presence of [gamma-33ATP] by radiometric scintillation counting analysis
[22] = biological target: Ribosomal protein S6 kinase alpha-4 (Homo sapiens, UniProt O75676); assay: Inhibition of recombinant human MSK2 (2 to end residues) using GRPRTSSFAEGKK as substrate incubated for 40 mins in presence of [gamma-33ATP by radiometric scintillation counting analysis
[23] = biological target: Insulin-like growth factor 1 receptor (Homo sapiens, UniProt P08069); assay: Inhibition of human recombinant IGF1R (959 to end residues) using KKKSPGEYVNIEF as substrate after 40 mins by [gamma-33ATP] by radiometric scintillation counting analysis
[24] = biological target: Serine/threonine-protein kinase pim-3 (Homo sapiens, UniProt Q86V86); assay: Inhibition of recombinant human Pim3 (2 to end residues) using RSRHSSYPAGT as substrate incubated for 40 mins in presence of [gamma33P]ATP by radiometric scintillation counting analysis

Measured: IC50

Sequence of Serine/threonine-protein kinase 38-like (Q9Y2H1 whole entry): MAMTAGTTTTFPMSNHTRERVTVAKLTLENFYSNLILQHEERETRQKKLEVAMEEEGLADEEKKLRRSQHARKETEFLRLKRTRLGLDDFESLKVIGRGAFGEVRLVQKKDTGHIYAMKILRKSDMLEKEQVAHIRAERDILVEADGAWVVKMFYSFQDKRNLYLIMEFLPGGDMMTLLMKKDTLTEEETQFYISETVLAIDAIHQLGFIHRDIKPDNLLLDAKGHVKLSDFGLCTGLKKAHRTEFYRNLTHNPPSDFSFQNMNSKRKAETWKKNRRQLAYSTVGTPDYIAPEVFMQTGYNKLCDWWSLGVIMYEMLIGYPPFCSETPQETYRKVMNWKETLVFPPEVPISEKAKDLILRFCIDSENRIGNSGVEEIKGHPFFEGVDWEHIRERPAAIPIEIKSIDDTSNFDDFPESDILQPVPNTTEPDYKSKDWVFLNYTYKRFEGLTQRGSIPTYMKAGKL
Sequence of Protein kinase C iota type (P41743 whole entry): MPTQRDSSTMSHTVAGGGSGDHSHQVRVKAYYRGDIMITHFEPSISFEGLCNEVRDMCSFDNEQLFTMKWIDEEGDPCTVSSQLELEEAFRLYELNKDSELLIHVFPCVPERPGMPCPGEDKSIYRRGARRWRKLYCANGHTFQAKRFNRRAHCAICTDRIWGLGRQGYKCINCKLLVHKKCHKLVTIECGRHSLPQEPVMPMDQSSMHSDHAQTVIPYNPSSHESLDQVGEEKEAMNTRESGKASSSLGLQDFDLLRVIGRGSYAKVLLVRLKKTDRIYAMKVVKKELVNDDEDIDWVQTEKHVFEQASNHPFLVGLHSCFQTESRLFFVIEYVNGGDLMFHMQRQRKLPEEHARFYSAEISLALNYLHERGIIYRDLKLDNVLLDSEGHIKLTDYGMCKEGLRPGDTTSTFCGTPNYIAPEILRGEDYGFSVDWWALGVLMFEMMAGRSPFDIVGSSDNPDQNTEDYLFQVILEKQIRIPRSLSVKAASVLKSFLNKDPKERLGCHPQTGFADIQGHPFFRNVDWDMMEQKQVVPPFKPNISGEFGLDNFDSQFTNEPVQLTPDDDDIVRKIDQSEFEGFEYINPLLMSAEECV
Sequence of Ribosomal protein S6 kinase alpha-4 (O75676 whole entry): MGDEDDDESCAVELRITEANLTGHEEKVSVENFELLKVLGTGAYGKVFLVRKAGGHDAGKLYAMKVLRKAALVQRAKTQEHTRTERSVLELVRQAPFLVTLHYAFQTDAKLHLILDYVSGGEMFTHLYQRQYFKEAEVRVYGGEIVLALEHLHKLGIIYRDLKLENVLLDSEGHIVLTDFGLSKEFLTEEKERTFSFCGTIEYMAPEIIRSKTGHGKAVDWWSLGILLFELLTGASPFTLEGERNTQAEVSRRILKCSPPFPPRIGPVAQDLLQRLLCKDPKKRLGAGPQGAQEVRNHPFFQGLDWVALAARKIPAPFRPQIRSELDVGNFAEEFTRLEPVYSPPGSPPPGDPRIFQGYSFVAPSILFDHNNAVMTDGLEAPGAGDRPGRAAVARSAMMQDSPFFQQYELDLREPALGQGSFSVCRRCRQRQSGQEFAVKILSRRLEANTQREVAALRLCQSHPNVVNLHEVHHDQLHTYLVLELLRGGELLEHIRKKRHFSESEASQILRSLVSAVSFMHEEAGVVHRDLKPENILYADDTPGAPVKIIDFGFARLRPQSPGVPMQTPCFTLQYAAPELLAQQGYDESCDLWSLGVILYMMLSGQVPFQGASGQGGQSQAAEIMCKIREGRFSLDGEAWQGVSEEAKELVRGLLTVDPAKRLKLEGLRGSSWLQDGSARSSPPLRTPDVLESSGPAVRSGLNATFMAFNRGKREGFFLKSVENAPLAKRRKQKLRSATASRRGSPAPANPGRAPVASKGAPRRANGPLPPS
Sequence of Proto-oncogene tyrosine-protein kinase receptor Ret (P07949 29-1114 V804M limits assumed): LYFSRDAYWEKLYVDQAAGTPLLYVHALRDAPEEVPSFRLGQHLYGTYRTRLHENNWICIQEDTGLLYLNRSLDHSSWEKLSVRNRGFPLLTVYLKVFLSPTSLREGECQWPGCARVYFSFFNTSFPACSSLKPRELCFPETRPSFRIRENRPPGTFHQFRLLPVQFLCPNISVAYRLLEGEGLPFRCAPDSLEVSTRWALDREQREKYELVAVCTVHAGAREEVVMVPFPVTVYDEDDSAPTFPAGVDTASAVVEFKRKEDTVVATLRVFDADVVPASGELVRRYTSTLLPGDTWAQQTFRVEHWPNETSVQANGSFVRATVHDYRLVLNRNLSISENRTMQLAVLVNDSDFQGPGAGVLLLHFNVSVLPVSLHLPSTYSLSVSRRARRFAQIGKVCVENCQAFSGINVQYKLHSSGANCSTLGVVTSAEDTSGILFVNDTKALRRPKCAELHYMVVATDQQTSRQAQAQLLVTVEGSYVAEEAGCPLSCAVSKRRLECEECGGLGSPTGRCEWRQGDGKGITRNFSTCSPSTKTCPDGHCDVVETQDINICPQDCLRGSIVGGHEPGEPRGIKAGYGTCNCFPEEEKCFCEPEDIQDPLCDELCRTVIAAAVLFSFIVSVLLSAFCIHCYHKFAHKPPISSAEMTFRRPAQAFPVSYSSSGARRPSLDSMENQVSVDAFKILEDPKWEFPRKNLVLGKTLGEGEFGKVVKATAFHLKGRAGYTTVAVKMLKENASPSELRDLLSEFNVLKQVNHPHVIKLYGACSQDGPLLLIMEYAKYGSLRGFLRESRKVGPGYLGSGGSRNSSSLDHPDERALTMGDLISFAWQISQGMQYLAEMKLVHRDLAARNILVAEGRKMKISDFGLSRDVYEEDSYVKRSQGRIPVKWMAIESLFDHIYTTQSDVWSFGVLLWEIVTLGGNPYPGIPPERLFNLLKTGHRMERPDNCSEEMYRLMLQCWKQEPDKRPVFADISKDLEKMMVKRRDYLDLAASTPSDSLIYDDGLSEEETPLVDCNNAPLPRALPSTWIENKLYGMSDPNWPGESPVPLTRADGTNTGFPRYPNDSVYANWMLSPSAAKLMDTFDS
Sequence of Serine/threonine-protein kinase PAK 1 (Q13153 whole entry, the tested form may be a part): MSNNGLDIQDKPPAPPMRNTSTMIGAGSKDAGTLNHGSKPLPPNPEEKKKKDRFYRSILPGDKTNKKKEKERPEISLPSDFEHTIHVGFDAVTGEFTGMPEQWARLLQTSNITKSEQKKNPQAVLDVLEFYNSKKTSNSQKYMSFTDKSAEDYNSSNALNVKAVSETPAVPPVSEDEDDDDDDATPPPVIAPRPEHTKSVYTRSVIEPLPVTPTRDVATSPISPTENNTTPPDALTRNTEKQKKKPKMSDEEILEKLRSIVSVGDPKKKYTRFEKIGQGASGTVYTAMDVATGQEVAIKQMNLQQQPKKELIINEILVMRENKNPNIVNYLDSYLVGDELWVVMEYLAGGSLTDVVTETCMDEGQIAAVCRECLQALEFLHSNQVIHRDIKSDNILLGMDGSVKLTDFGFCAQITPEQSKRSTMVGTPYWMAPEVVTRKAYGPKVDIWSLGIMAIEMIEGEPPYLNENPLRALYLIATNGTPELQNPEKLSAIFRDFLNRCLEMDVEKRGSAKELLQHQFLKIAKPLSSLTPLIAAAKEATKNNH
Sequence of Tyrosine-protein kinase JAK1 (P23458 whole entry, the tested form may be a part, canonical isoform): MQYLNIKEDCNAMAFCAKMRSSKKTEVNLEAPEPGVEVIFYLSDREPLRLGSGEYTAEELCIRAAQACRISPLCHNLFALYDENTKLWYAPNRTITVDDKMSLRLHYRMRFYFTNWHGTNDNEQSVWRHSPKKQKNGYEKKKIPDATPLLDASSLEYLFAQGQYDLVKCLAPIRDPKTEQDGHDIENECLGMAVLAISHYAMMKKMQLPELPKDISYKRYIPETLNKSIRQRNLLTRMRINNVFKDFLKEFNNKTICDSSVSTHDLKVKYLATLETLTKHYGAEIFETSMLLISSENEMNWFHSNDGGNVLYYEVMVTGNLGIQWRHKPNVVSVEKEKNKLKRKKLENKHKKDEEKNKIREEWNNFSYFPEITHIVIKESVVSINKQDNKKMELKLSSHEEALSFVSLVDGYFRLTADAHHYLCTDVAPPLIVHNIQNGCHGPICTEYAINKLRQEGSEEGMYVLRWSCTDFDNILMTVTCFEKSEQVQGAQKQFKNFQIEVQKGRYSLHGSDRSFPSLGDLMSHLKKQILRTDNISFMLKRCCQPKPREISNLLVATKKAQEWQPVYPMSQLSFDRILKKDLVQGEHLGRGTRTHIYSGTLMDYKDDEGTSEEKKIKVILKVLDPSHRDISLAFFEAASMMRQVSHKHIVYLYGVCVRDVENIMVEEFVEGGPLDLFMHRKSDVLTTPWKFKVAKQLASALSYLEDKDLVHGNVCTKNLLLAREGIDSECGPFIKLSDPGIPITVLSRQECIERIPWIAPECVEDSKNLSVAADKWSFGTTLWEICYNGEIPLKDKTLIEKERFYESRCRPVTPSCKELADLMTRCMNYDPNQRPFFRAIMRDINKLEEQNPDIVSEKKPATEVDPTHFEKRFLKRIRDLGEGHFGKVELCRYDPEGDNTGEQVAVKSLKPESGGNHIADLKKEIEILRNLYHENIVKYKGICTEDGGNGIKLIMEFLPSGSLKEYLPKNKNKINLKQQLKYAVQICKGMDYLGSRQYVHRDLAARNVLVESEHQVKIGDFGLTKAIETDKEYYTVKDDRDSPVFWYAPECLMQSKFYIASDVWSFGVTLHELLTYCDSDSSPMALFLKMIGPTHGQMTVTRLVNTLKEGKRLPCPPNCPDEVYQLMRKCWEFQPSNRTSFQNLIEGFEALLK
Sequence of Serine/threonine-protein kinase Nek6 (Q9HC98 whole entry): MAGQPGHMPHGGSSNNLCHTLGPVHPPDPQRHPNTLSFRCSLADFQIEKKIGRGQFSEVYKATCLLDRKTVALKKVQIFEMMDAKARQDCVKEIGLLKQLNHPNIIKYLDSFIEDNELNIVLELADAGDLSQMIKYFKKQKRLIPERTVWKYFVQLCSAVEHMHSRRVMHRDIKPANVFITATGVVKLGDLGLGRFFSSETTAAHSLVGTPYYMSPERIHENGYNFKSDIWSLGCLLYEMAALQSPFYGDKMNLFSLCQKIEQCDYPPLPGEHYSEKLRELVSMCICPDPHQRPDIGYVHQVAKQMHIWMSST

CN(C)c1ccc(C(=O)Nc2cccc(NC(=O)COc3ccc4c(=O)ccoc4c3)c2)cc1
> 10 µM: [1] | [2] | [3] | [4] | [5] | [6] | [7] | [8] | [9] | [10] | [11] | [12] | [13] | [14] | [15] | [16] | [17] | [18] | [19] | [20] | [21] | [22] | [23] | [24]
